# Values of other authors in patent US20220387384A1, “METHODS OF TREATING LSD1-RELATED DISEASES AND DISORDERS WITH LSD1 INHIBITORS” (Taiho Pharmaceutical Co., Ltd., priority 2019, published 2022).
# Conditions: i.e. about 3 days; NPL 11
structure (smiles),measurement,value
COc1ccc(-c2c(-c3ccc(C#N)c(F)c3)nc(N3CCC(N)CC3)n(C)c2=O)cc1F [CC-90011],half-life in pharmacokinetics,~71 h
